The source of these data is paper PMC2781551, “Antibody Complementarity-Determining Regions (CDRs): A Bridge between Adaptive and Innate Immunity” (PLoS ONE, 2009).

The subject of assay [1] is peritoneal murine macrophages (PM). Description: Cytokine production by peritoneal macrophages (ELISA). The settings on record: for reduction of TNF-α production induced by LPS / reduction of TNF-α production induced by VHCDR3: PM 5×10^6/ml, wortmannin 4 nM or SB203580 0,2 µM; for reduction of TNF-α production induced by LPS: LPS 10 µg/ml; for reduction of TNF-α production induced by VHCDR3: VHCDR3 10 µg/ml; for IL-6 production by PM: n = 7. The class given is cell-based, mouse (Balb/c). The method, then:
DC and CD4^+ T cells were separated from spleens of inbred Balb/c mice using N-418 or L3T4 mAb-conjugated MicroBeads (Miltenyi Biotec, Bergisch Gladbach, Germany), and magnetic separation was performed according to the manufacturer's instruction. Peritoneal murine neutrophils (PMN) and macrophages (PM) were collected 18 h or 4 days, respectively, after the intraperitoneal injection of 1 ml endotoxin-free 10% thioglycolate solution (Difco).
(§1) Unfractionated spleen cells (10×10^6/ml), recovered from Balb/c mice, were cultured in the presence or absence of mAb HuA and mAb MoA CDR peptides, LPS or NC (all 10 µg/ml) for 18 h in RPMI-1640 plus 10% FCS (complete medium) at 37°C and 5% CO2. After incubation, the supernatants were collected and tested for TNF-α and IL-6 levels by specific ELISA assays (Biosource, Camarillo, CA, USA). In selected experiments, PM (5×10^6/ml) were cultured as above described. After incubation, the supernatants were collected and tested for TNF-α and IL-6 levels by specific ELISA assays (Biosource). PM (5×10^6/ml) were cultured in the presence or absence of mouse VHCDR3, LPS, NC or SP (all at 10 µg/ml) for 1 or 18 h in complete medium at 37°C and 5% CO2. PM (5×10^6/ml) were cultured as above described in the presence or absence of wortmannin (4 nM) or SB203580 (0,2 µM) (both from Sigma). After incubation, the supernatants were collected and tested for TNF-α level by specific ELISA assays (Biosource). In selected experiments, PM (5×10^6/ml) were cultured in the presence or absence of VHCDR3, LPS, NC, SP and nine VHCDR3 alanine-substituted derivatives (all at 10 µg/ml) for 18 h in complete medium at 37°C and 5% CO2. After incubation, the supernatants were collected and tested for TNF-α level by specific ELISA assays (Biosource). PMN (5×10^6/ml) were cultured in the presence or absence of mAb MoA CDR peptides, LPS or NC (all 10 µg/ml) for 18 h in complete medium at 37°C and 5% CO2. After incubation, the supernatants were collected and tested for TNF-α and IL-6 levels by specific ELISA assays (Biosource). Cytokine titers were calculated by reference to standard curves, constructed with known amounts of recombinant cytokines.

In assay [2] the test system is IkBα. Description: Phospho-IkBα Western blotting in PM. In kind it is cell-based, mouse (Balb/c). The settings on record: PM, wortmannin 4 nM with VHCDR3 10 µg/ml, 1 h, n = 5. Here is the method:
After incubation, cells were washed and lysated with Mammalian protein extraction reagent (M-PER) in the presence of protease and phosphatase inhibitors (all from Pierce, Rockford, IL). Protein concentration was determined with a BCA protein Assay Reagent kit (Pierce). The lysates (30 µg of each sample) were separated by sodium dodecyl-sulfate-10% PAGE, transferred to a nitrocellulose membrane (Pierce) for 1 h at 100 V in a blotting system (Bio-Rad) for Western Blot analysis, and the membranes were incubated over-night with rabbit polyclonal Abs to phospho-Akt (pAkt; dilution 1/1000), phospho-IkBα (pIkBα; dilution 1/1000) (all from Cell Signalling Technology, Beverly, MA) and rabbit polyclonal Ab to TLR-4 (dilution 1/200) (Santa Cruz Biotechnology Inc.) in blocking buffer. […] Immunoreactive bands were visualized and quantified by Chemidoc Instrument (Bio-Rad). In particular, a quantitative analysis of the region of interest drawn around the outer edge of the band, was performed based on the guidelines for the use of the Chemidoc Instrument (Bio-Rad). […] All the parallelograms that form a band create one unique three-dimensional solid structure on which the volume is calculated. […]
Background: A western blot detects proteins with antibodies after separation by electrophoresis.

Assay [3] has as its system C. albicans strain (CA-6). The conditions noted are these: previously proven; ref [8], [16]; cited from earlier work. The source says:
The CDRs of human mAb HuA (IgM) and mouse mAb MoA (IgM) specific for the difucosyl human blood group A substance, were chemically synthesized on the basis of the previously described sequences of VH and VL chain [21]. An irrelevant synthetic decapeptide (MSTAVSKCAT), previously proven to be devoid of either candidacidal or immunomodulatory activity, was used as a negative control (NC), [16]. In selected experiments, a scramble peptide (SP) (YYWLQGGFAN) and nine VHCDR3 alanine-substituted derivatives were used for control of specificity and evalua ...

In assay [4] the test system is TLR-4 gene. Description: TLR-4 gene expression in PM (quantitative RT-PCR). In kind it is cell-based, mouse (Balb/c). The settings on record: PM 1×10^6/ml, 10 µg/ml, 1 h, qPCR normalized against GADPH, n = 5. The method, then: (§2) After incubation, cells were lysed using Trizol reagent (Invitrogen, Carlsbad, CA), and total RNA was extracted. The reverse transcriptase (RT) reaction was performed using Moloney murine leukaemia virus reverse transcriptase (M-MLV RT), as described in the manufacturer's instructions (Invitrogen).
(§3) TNF-α, TLR-4, and GADPH clones for use as standards were prepared by PCR from cDNA derived from PM and cloned into p-Drive vector (Qiagen, S.p.A., Milano, Italy). These were verified by sequence analysis. Plasmid DNA was diluted 10-fold and the starting concentration for the dilution series was 10^8 gene copies/µl.
(§4) For each target gene, primers were selected using the Beacon Designer software (Bio-Rad, Hercules, CA). Real-time RT-PCR (quantitative RT-PCR) was performed in 96-well PCR plates using the SYBR green (all from BioRad). For real-time PCR reaction 100 ng/µl of reverse-transcribed RNA was used and cDNA was normalized according to GADPH as an internal NC gene. Amplification conditions were the same for TNF-α, TLR-4 and GADPH mRNAs assayed: 3 min at 95°C, 40 cycles of 10 s at 95°C and 30 s at 62°C. For the Melt Curve, the amplification condition was: 1 min at 50°C and 90 cycles of 10 s at 50°C. The experiments were performed using the iCycler IQ Multicolor Real-time PCR Detection System (BioRad).
Background: In qPCR the cycle at which signal appears reflects the starting amount.

The subject of assay [5] is TNF-α gene. Description: TNF-α gene expression in PM (quantitative RT-PCR). The class given is cell-based, mouse (Balb/c). The settings on record: PM 1×10^6/ml, 10 µg/ml, 1 and 6 h, qPCR normalized against GADPH, n = 5. Here is the method:
as §2, §3, §4

Assay [6] concerns TLR-4. Description: TLR-4 expression in PM (flow cytometry). In kind it is cell-based, mouse (Balb/c). The settings on record: PM 1×10^6/ml, 10 µg/ml, 1 h, RPE-labelled mAb to TLR-4, FACScan, representative experiment out of five. The text has this:
Data are reported as percentage of positive cells. […] Data are expressed as percentage of positive cells.

For assay [7], the system named is murine splenocytes. Description: Cytokine production by unfractionated spleen cells (ELISA). The class given is cell-based, mouse (Balb/c). The settings on record: 10 µg/ml, 18 h, 10×10^6 cells/ml, ELISA of supernatants, data not shown. Here is the method: as §1
(In an ELISA, binding on a coated surface is turned into a signal by an enzyme label.)

Setting [8] is: 10 µg/ml, 18 h, 5×10^6 cells/ml, P<0.05 vs untreated.

`C[S+]([O-])c1ccc(-c2nc(-c3ccncc3)c(-c3ccc(F)cc3)[nH]2)cc1` (stereo not drawn) [SB203580]: in assay [1], the “reduction of TNF-α production induced by LPS” value is 28% and the “reduction of TNF-α production induced by VHCDR3” value is reported as 21%.

Consider `COC[C@H]1OC(=O)c2coc3c2[C@@]1(C)C1=C(C3=O)[C@@H]2CCC(=O)[C@@]2(C)C[C@H]1OC(C)=O` [wortmannin], for which, in assay [1], the “reduction of TNF-α production induced by LPS” value worked out at 39% and the “reduction of TNF-α production induced by VHCDR3” value is 28%. Also, in assay [2], the “effect on VHCDR3-induced IkBα phosphorylation” value is recorded as “significantly reduced”.

As to “MSTAVSKCAT [NC, irrelevant synthetic decapeptide used as a negative control, reference compound]”, in assay [1] (setting [8]), the “TNF-α production by PM” value is reported as “did not stimulate cytokine production” and the “IL-6 production by PM” value is given as “did not stimulate cytokine production”. In addition, the “candidacidal or immunomodulatory activity” value in assay [3] is on record as “devoid”. Also, the “TLR-4 gene expression, 1 h” value in assay [4] is “No activation”. Further, in assay [5], the “TNF-α gene expression, 1 and 6 h” value is on record as “inability”. Moreover, the “Percentage of TLR-4 positive cells” value in assay [6] is recorded as 24.1. Further, in assay [7], the “IL-6 production by splenocytes” value is on record as “did not affect cytokine production” and the “TNF-α production by splenocytes” value is on record as “did not affect cytokine production”.

With “QQRSNWPRS [mAb HuA VLCDR3, synthetic VLCDR3 of human mAb HuA]”, the “IL-6 production by PM” value in assay [1] (setting [8]) is “significant up-regulation”. In assay [7], the “IL-6 production by splenocytes” value is reported as “significant up-regulation”.
